Like-named read-outs stand apart in the source and are kept apart here.
What was measured:
ostéocalcine = experiment: Quantitative RT-PCR, osteoblast differentiation marker: osteocalcin; type: cell-based, rats Wistar; conditions: Rattus norvegicus; for activation at 5 µM: AA+βGP+Fisétine 5µM
Description: (§1) Les préostéoblastes primaires ont été isolés à partir de la calotte crânienne de rats Wistar nouveaux-nés par digestion enzymatique comme précédemment décrit [Declercq, H., Van den Vreken, N., De Maeyer, E., Verbeeck, R., Schacht, E., De Ridder, L., and Cornelissen, M. (2004). Isolation, proliferation and differentiation of osteoblastic cells to study cell/biomaterial interactions: comparison of different isolation techniques and source. Biomaterials 25, 757-68.]. Les précurseurs d'ostéoclastes RAW264.7 ont été obtenus auprès de l'ATCC (Manassas, VA, USA). Les préostéoblastes et les RAW264.7 ont été cultivés dans du milieu α-MEM (Invitrogen, Carlsbad, CA, USA) supplémenté avec 10% de SVF décomplémenté et de 100 unités/ml de pénicilline-streptomycine.
(§2) L'extraction des ARN totaux (cellules et fémurs) a été effectuée en utilisant le réactif TRIzol, la transcription inverse (RT) a été réalisée à l'aide du kit de synthèse d'ADNc Dynamo (Thermo Scientific, Waltham, MA, USA) et l'analyse PCR en temps réel a été réalisée avec le Mastercycler ep Realplex2 (Eppendorf, Hambourg, Allemagne). Toutes les valeurs ont été normalisées par la GAPDH. Les séquences des oligos utilisés sont : ALP F 5'-GGCCAGCTACACCACAACA-3' / ALP R 5'-[…] -3' / OCN F 5'-AGACTCCGGCGCTACCTT -3' / OCN R 5'-[…]-3'/ COL1 F 5'-[…]-3' / COL1 R 5'-[…]-3' / GAPDH F 5'-[…]-3' / GAPDH R 5'-[…]-3'

collagène de type 1 = experiment: Quantitative RT-PCR, osteoblast differentiation marker: type 1 collagen; type: cell-based, rats Wistar; conditions: Rattus norvegicus; for activation at 5 µM: AA+βGP+Fisétine 5µM
Description: as §1, §2

Compound `O=c1c(O)c(-c2ccc(O)c(O)c2)oc2cc(O)ccc12` [Fisétine, 3,3',4',7-tétrahydroxyflavone] has an activation at 1 µM (ostéocalcine; 168 h, AA+βGP+Fisétine 1 µM, J7, read-out: expression de l'ostéocalcine par rapport à la condition « AA+βGP seuls ») of 63%, an activation at 5 µM (ostéocalcine; 168 h, J7, read-out: expression de l'ostéocalcine par rapport à la condition « AA+βGP seuls ») of 177% and an activation at 1 µM (ostéocalcine; 336 h, AA+βGP+Fisétine 1µM, J14, read-out: expression de l'ostéocalcine par rapport à la condition « AA+βGP seuls ») of 63%. The activation at 5 µM (ostéocalcine; 336 h, J14, read-out: expression de l'ostéocalcine par rapport à la condition « AA+βGP seuls ») was 131%, the activation at 1 µM (collagène de type 1; 168 h, AA+βGP+Fisétine 1 µM, J7, read-out: expression du collagène de type 1 par rapport à la condition « AA+βGP seuls ») was 34% and the activation at 5 µM (collagène de type 1; 168 h, J7, read-out: expression du collagène de type 1 par rapport à la condition « AA+βGP seuls ») was 80%. The activation at 1 µM (collagène de type 1; 336 h, AA+βGP+Fisétine 1µM, J14, read-out: expression du collagène de type 1 par rapport à la condition « AA+βGP seuls ») was 60% and the activation at 5 µM (collagène de type 1; 336 h, J14, read-out: expression du collagène de type 1 par rapport à la condition « AA+βGP seuls ») was 138%.
